Experimental data taken from DBAASP.
Values after ≈ are worked out from the molar mass of the structure shown. Values joined by “and” are separate entries in the source; they are usually repeats but may differ in a detail not shown here. Identical values can stand only once.

Columns and labels:
Test in all cases: ≥ marks a high value that may be exact or a test limit, other limits are often not marked, values filed in µg/mL are converted to µM
[1] = test system: Escherichia coli BL21
[2] = test system: Pseudomonas aeruginosa PAO1
[3] = test system: Streptococcus pyogenes M1T1 5448
[4] = test system: Salmonella sp.
[5] = test system: Aureobasidium pullulans
[6] = test system: Bacillus megaterium
[7] = test system: Bacillus subtilis ATCC 23857
[8] = test system: Candida albicans ATCC 10231
[9] = test system: Corynebacterium glutamicum ATCC 13032
[10] = test system: Escherichia coli ATCC 25922
[11] = test system: Micrococcus luteus
[12] = test system: Pseudomonas aeruginosa ATCC 27853
[13] = test system: Staphylococcus aureus ATCC 9144
[14] = test system: Staphylococcus aureus SH1000
[15] = test system: Acinetobacter baumannii ATCC 19606
[16] = test system: Candida albicans ATCC 90028
[17] = test system: Cryptococcus neoformans ATCC 208821
[18] = test system: Klebsiella pneumoniae ATCC 700603
[19] = test system: Staphylococcus aureus ATCC 43300
[20] = test system: Enterococcus faecalis
[21] = test system: Escherichia coli W3110
[22] = test system: Pseudomonas aeruginosa PAK
[23] = test system: Staphylococcus aureus
[24] = test system: Streptococcus gordonii Challis DL1
[25] = test system: Streptococcus mitis ATCC 903
[26] = test system: Streptococcus mutans UA159
[27] = test system: Streptococcus sanguinis NY101
[28] = test system: Streptococcus sobrinus ATCC 33478
[29] = test system: Acinetobacter baumannii 7226/16
[30] = test system: Klebsiella pneumoniae ESBL 344/17
[31] = test system: Pseudomonas aeruginosa 522/17
[32] = test system: Staphylococcus aureus 1399/17
[33] = test system: Staphylococcus aureus ATCC 33591
[34] = test system: Staphylococcus aureus SG511
[35] = test system: Candida albicans FRR 5580
[36] = test system: Pseudomonas aeruginosa ATCC 9027
[37] = test system: Staphylococcus aureus ATCC 25923

CC[C@H](C)[C@H](NC(=O)[C@H](CCCCN)NC(=O)[C@H](CCCCN)NC(=O)[C@H](Cc1c[nH]c2ccccc12)NC(=O)[C@H](CCC(=O)O)NC(=O)[C@H](CC(N)=O)NC(=O)[C@@H](NC(=O)[C@@H](NC(=O)[C@H](CCCCN)NC(=O)[C@H](CCCCN)NC(=O)[C@H](CC(C)C)NC(=O)[C@H](CCCN=C(N)N)NC(=O)[C@H](CC(N)=O)NC(=O)[C@H](Cc1ccccc1)NC(=O)[C@@H](NC(=O)[C@H](CCCCN)NC(=O)[C@H](CCC(=O)O)NC(=O)[C@@H](NC(=O)CNC(=O)[C@H](C)N)[C@@H](C)O)[C@@H](C)CC)[C@@H](C)O)[C@@H](C)CC)C(=O)N[C@@H](C)C(=O)N[C@@H](CCCCN)C(=O)N[C@@H](CCCN=C(N)N)C(=O)N[C@@H](C)C(=O)N[C@@H](Cc1c[nH]c2ccccc12)C(=O)O [AGTEKIFNRLKKTINEWKKIAKRAW]
MIC [1]: 4 µM (≈ 12.1 µg/mL) | MIC [2]: 16 µM (≈ 48.5 µg/mL) | MIC [3]: 8 µM (≈ 24.2 µg/mL)

CC[C@H](C)[C@H](NC(=O)[C@H](CCCCN)NC(=O)[C@H](CCCCN)NC(=O)CNC(=O)[C@H](CCC(=O)O)NC(=O)[C@H](CCC(N)=O)NC(=O)[C@@H](NC(=O)[C@@H](NC(=O)[C@H](CCCCN)NC(=O)[C@H](CCCCN)NC(=O)[C@H](CC(C)C)NC(=O)[C@H](CCCN=C(N)N)NC(=O)[C@H](CCC(N)=O)NC(=O)[C@H](Cc1ccccc1)NC(=O)[C@@H](NC(=O)[C@H](CCCCN)NC(=O)[C@H](CCC(=O)O)NC(=O)[C@@H](NC(=O)CNC(=O)[C@H](C)N)[C@@H](C)O)[C@@H](C)CC)[C@@H](C)O)[C@@H](C)CC)C(=O)N[C@@H](C)C(=O)N[C@@H](CCCCN)C(=O)N[C@@H](CCCN=C(N)N)C(=O)N[C@@H](Cc1c[nH]c2ccccc12)C(=O)N[C@@H](Cc1c[nH]c2ccccc12)C(=O)O [AGTEKIFQRLKKTIQEGKKIAKRWW]
MIC [1]: 0.25 µM (≈ 0.761 µg/mL) | MIC [2]: 16 µM (≈ 48.7 µg/mL) | MIC [3]: 0.125 µM (≈ 0.381 µg/mL)

CC[C@H](C)[C@H](NC(=O)[C@H](C)NC(=O)CNC(=O)[C@@H](NC(=O)[C@@H](N)Cc1ccccc1)[C@@H](C)CC)C(=O)N[C@@H](C)C(=O)N[C@@H](CCCN=C(N)N)C(=O)N[C@@H](CC(C)C)C(=O)N[C@@H](CC(C)C)C(=O)N[C@@H](CO)C(=O)N[C@@H](CCCCN)C(=O)N[C@H](C(=O)N[C@@H](Cc1ccccc1)C(=O)O)[C@@H](C)CC [FIGAIARLLSKIF]
MIC [4]: ≥ 90.5 µM

C[C@H](NC(=O)[C@H](CCCCN)NC(=O)[C@H](Cc1c[nH]c2ccccc12)NC(=O)CNC(=O)[C@H](Cc1c[nH]c2ccccc12)NC(=O)[C@@H]1CCCN1C(=O)[C@H](CCCCN)NC(=O)[C@H](CCCCN)NC(=O)CN)C(=O)N[C@@H](CCCCN)C(N)=O [GKKPWGWKAK]
MIC [5]: ≥ 52.7 µM | MIC [6]: 3.29 µM (≈ 3.9 µg/mL) | MIC [7]: ≥ 211 µM | MIC [8]: 105 µM (≈ 125 µg/mL) | MIC [9]: 13.2 µM (≈ 15.6 µg/mL) | MIC [10]: > 211 µM | MIC [11]: ≥ 211 µM | MIC [12]: > 211 µM | MIC [13]: ≥ 211 µM

CC[C@H](C)[C@H](NC(=O)[C@H](CCCCN)NC(=O)[C@H](CC(C)C)NC(=O)[C@H](CC(C)C)NC(=O)[C@@H](N)CCCCN)C(=O)N[C@H](C(=O)N[C@@H](CCCCN)C(=O)N[C@@H](CCCCN)C(=O)N[C@H](C(=O)N[C@H](C(=O)NCC(=O)N[C@@H](C)C(=O)N[C@@H](CC(C)C)C(=O)NCC(N)=O)C(C)C)C(C)C)C(C)C [KLLKIVKKVVGALG]
MIC [14]: ≥ 100 µM

CC(C)C[C@H](NC(=O)[C@H](C)NC(=O)CNC(=O)[C@H](CC(C)C)NC(=O)[C@H](CC(C)C)NC(=O)[C@H](CCCCN)NC(=O)[C@H](CCCCN)NC(=O)[C@H](CC(C)C)NC(=O)[C@H](CC(C)C)NC(=O)[C@H](CCCCN)NC(=O)[C@H](CC(C)C)NC(=O)[C@H](CC(C)C)NC(=O)[C@@H](N)CCCCN)C(=O)NCC(N)=O [KLLKLLKKLLGALG]
MIC [15]: 1 µM (≈ 1.51 µg/mL) | MIC [16]: 11 µM (≈ 16.6 µg/mL) | MIC [17]: 3 µM (≈ 4.52 µg/mL) | MIC [10]: 1 µM (≈ 1.51 µg/mL) | MIC [18]: 5 µM (≈ 7.54 µg/mL) | MIC [12]: 21 µM (≈ 31.6 µg/mL) | MIC [19]: 3 µM (≈ 4.52 µg/mL) | MIC [14]: 10 µM (≈ 15.1 µg/mL)

CC[C@H](C)[C@H](NC(=O)[C@H](Cc1cnc[nH]1)NC(=O)[C@H](CCCCN)NC(=O)[C@@H](NC(=O)[C@@H](N)CC(C)C)[C@@H](C)CC)C(=O)N[C@@H](CC(C)C)C(=O)N[C@@H](Cc1cnc[nH]1)C(=O)N[C@@H](CCCN=C(N)N)C(=O)N[C@@H](CC(C)C)C(N)=O [LIKHILHRL]
MIC [20]: ≥ 438 µM | MIC [21]: ≥ 438 µM | MIC [22]: ≥ 438 µM | MIC [23]: > 438 µM | MIC [24]: ≥ 438 µM | MIC [25]: ≥ 438 µM | MIC [26]: ≥ 109 µM | MIC [27]: ≥ 438 µM | MIC [28]: ≥ 438 µM

CC[C@H](C)[C@H](NC(=O)[C@H](CCCN=C(N)N)NC(=O)[C@@H](NC(=O)[C@@H]1CCCN1C(=O)[C@@H]1CCCN1C(=O)[C@H](CCCN=C(N)N)NC(=O)[C@H](CCCN=C(N)N)NC(=O)[C@H](Cc1ccccc1)NC(=O)[C@@H]1CCCN1C(=O)[C@H](CC(C)C)NC(=O)[C@H](CCCN=C(N)N)NC(=O)[C@H](Cc1ccccc1)NC(=O)[C@H](CCCN=C(N)N)NC(=O)[C@H](CCCN=C(N)N)NC(=O)[C@H](Cc1ccccc1)NC(=O)[C@@H](N)CCCN=C(N)N)[C@@H](C)CC)C(=O)N[C@@H](Cc1cnc[nH]1)C(N)=O [RFRRFRLPFRRPPIRIH]
MIC [29]: 8 µM and 12.5 µM | MIC [30]: 8 µM and 6.2 µM | MIC [31]: 16 µM (≈ 37.1 µg/mL) | MIC [32]: 4 µM and 6.2 µM | MIC [33]: 8 µM (≈ 18.6 µg/mL) | MIC [34]: 0.5 µM (≈ 1.16 µg/mL)

NCCCC[C@H](NC(=O)[C@H](Cc1c[nH]c2ccccc12)NC(=O)[C@H](Cc1c[nH]c2ccccc12)NC(=O)[C@@H](N)CCCN=C(N)N)C(=O)N[C@@H](Cc1c[nH]c2ccccc12)C(=O)N[C@@H](Cc1c[nH]c2ccccc12)C(N)=O [RWWKWW]
MIC [35]: ≥ 61.1 µM | MIC [36]: 30.6 µM (≈ 32 µg/mL)

NCCCC[C@H](NC(=O)[C@H](Cc1c[nH]c2ccccc12)NC(=O)[C@H](Cc1c[nH]c2ccccc12)NC(=O)[C@H](CCCN=C(N)N)NC(=O)[C@H](Cc1c[nH]c2ccccc12)NC(=O)[C@@H](N)Cc1c[nH]c2ccccc12)C(=O)N[C@@H](Cc1c[nH]c2ccccc12)C(=O)N[C@@H](Cc1c[nH]c2ccccc12)C(N)=O [WWRWWKWW]
MIC [35]: ≥ 45.1 µM | MIC [10]: 5.64 µM (≈ 7.99 µg/mL) | MIC [36]: 22.5 µM (≈ 32 µg/mL) | MIC [37]: 5.64 µM (≈ 7.99 µg/mL) | MIC [23]: 2.82 µM (≈ 4 µg/mL)
